Where a name gives a salt, the structure may show the parent alone. Read-outs that look alike come from different tables or passages of the source.

What is called IC50 is the point on the concentration scale where inhibition reaches its midpoint. Usually Kd stands for the constant that tells how readily two partners part at equilibrium. A higher Kd goes with a looser complex.

The subject of assay [1] is KRas G12D-mediated phosphorylation of ERK in AGS cells (ATCC CRL-1739) expressing G12D. Nature of the assay: Inhibition of KRas G12D-mediated Phosphorylation of ERK in AGS cells. The class given is cell-based. The settings on record: Homo sapiens. The method, then:
Cells were plated in tissue culture treated 96 well plates at a density of 40,000 cells/well and allowed to attach for 12-14 hours. Diluted compounds were then added in a final concentration of 0.5% DMSO. After 3 hours, the medium was removed, 150 μL of 4.0% formaldehyde was added and the plates incubated at room temperature for 20 minutes. The plates were washed with PBS, and permeabilized with 150 μL of ice cold 100% methanol for 10 minutes. Non-specific antibody binding to the plates was blocked using […] Licor blocking buffer (Li-Cor Biotechnology, Lincoln Nebr.) for 1 hour at room temperature.
The amount of phospho-ERK was determined using an antibody specific for the phosphorylated form of ERK and compared to the amount of GAPDH. Primary antibodies used for the detection were added as follows: Phospho-ERK(Cell Signaling cs-9101) diluted 1:500 and GAPDH(Millipore MAB374) diluted 1:5000 in Licor block+0.05% Tween 20. The plates were incubated for 2 hours at room temperature. The plates were washed with PBS+0.05% Tween 20.
Secondary antibodies used to visualize primary antibodies were added as follows: Anti-rabbit-680 diluted 1:1000 and Anti-mouse-800 diluted 1:1000 both in Licor block+0.05% TweeN20, and were incubated for 1 hour at room temperature. The plates were washed with PBS +0.05% Tween 20. A 100 μL aliquot of PBS was added to each well and the plates were read on a Li-Cor Odyssey CLX plate reader.

Assay [2] deals with T1, KRas G12D (Homo sapiens (Human), UniProt P01116, G12D). Nature of the assay: KRas G12D Binding Assay (TR-FRET displacement of Cy5 labelled tracer). The settings on record: GDP-loaded KRAS G12D (amino acids 1:169), 60 minute incubation at 22° C. The method, then: After a 60 minute incubation at 22° C., the reaction was measured using a PerkinElmer EnVision multimode plate reader via TR-FRET dual wavelength detection, and the percent of control (POC) calculated using a ratiometric emission factor. […] The POC values were fit to a 4-parameter logistic curve and the IC50 value was determined as the concentration where the curve crosses 50 POC.
ND stands for “not determined.”
Background: TR-FRET usually uses a lanthanide donor and a delayed reading to cut background.
Target sequence in this assay (P01116 other isoform, or with tags, fused parts or gaps G12D): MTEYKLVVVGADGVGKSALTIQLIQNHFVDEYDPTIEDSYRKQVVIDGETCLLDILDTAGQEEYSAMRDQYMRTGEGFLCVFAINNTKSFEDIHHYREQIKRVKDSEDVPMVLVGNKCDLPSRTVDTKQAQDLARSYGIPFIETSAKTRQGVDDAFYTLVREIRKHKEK

Assay [3] has as its target T1, KRas G12D. Nature of the assay: KRas G12D Surface Plasmon Resonance (SPR) Binding Assay. The note with it: Biacore T200, immobilized biotinylated KRAS protein, 1:1 binding model. On the technique in general: Surface plasmon resonance follows binding to a sensor surface in real time, without labels.
Target sequence in this assay (P01116-2 other isoform, or with tags, fused parts or gaps G12D): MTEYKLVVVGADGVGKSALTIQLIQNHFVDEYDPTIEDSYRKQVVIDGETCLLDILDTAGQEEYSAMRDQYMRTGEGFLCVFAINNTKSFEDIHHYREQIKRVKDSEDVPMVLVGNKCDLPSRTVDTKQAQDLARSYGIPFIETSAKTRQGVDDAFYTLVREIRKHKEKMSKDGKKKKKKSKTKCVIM
Where [4] appears, read: phospho-ERK(Thr202/Tyr204) normalized to GAPDH, AGS cells, 3 hours, read-out: IC50.

Regarding `Cc1cc2[nH]ncc2c(-c2ncc3c(N4C[C@H]5CC[C@@H](C4)N5)nc(OCC45CCCN4CC(F)C5)nc3c2F)c1Cl` (mixture of isomers) [Example 376, 4-((1R,5S)-3,8-diazabicyclo[3.2.1]octan-3-yl)-7-(5-chloro-6-methyl-1H-indazol-4-yl)-8-fluoro-2-((2-fluorotetrahydro-1H-pyrrolizin-7a(5H)-yl)methoxy)pyrido[4,3-d]pyrimidine], in assay [1] (setting [4]), the IC50 came out at 582 nM.
Turning to `CCc1cccc2cccc(-c3ncc4c(N5CC6CCC(C5)N6)nc(OC[C@]56CCCN5[C@@H](COC(=O)N5CCOCC5)CC6)nc4c3F)c12` (single isomer, unassigned) [Example 431], the results for the IC50 in assay [1] (setting [4]) and in assay [2] were 74.3 nM and 1.4 nM, respectively.
For `CCc1cccc2cccc(-c3ncc4c(N5CC6CCC(C5)N6)nc(OC[C@]56CCCN5[C@@H](COC(=O)NC)CC6)nc4c3F)c12` (single isomer, unassigned) [Example 432] the same measures were 106 nM and 1.9 nM.
For `Fc1c(-c2cccc3cccc(Cl)c23)ncc2c(N3C[C@H]4CC[C@@H](C3)N4)nc(OCCCN3C[C@@H]4C[C@H]3CO4)nc12` [Example 103, (1S,4S)-5-(3-((4-((1R,5S)-3,8-diazabicyclo[3.2.1]octan-3-yl)-7-(8-chloronaphthalen-1-yl)-8-fluoropyrido[4,3-d]pyrimidin-2-yl)oxy)propyl)-2-oxa-5-azabicyclo[2.2.1]heptane], the IC50 in assay [1] (setting [4]) was above 16700 nM.
Take `CC1CCc2cccc(-c3ncc4c(N5CC6CCC(C5)N6)nc(OC[C@@H]5CCCN5C)nc4c3F)c21` (stereo partly drawn) [Example 174, 4-((1R,5S)-3,8-diazabicyclo[3.2.1]octan-3-yl)-8-fluoro-7-(3-methyl-2,3-dihydro-1H-inden-4-yl)-2-(((S)-1-methylpyrrolidin-2-yl)methoxy)pyrido[4,3-d]pyrimidine]: in assay [2], the IC50 was 63.9 nM. In assay [3], this molecule had a Kd of 186 nM.
Molecule `C#Cc1cccc2cccc(-c3ncc4c(N5C[C@H]6CC[C@@H](C5)N6)nc(OCC56CCCN5CCC6)nc4c3F)c12` [Example 179, 4-((1R,5S)-3,8-diazabicyclo[3.2.1]octan-3-yl)-7-(8-ethynylnaphthalen-1-yl)-8-fluoro-2-((hexahydro-1H-pyrrolizin-7a-yl)methoxy)pyrido[4,3-d]pyrimidine] showed an IC50 in assay [2] of 1.1 nM. Besides, the Kd in assay [3] came to 0.1 nM.
The like results for `Cc1c(-c2cc(O)cc3ccccc23)ncc2c(N3C[C@H]4CC[C@@H](C3)N4)nc(OC[C@@H]3CCCN3C)nc12` [Example 190, 4-(4-((1R,5S)-3,8-diazabicyclo[3.2.1]octan-3-yl)-8-methyl-2-(((S)-1-methylpyrrolidin-2-yl)methoxy)pyrido[4,3-d]pyrimidin-7-yl)naphthalen-2-ol] were, in that order, 64.1 nM and 76.1 nM.
`CN1C[C@H](Oc2cccc(S(=O)(=O)F)c2)C[C@H]1COc1nc(N2C[C@H]3CC[C@@H](C2)N3)c2cnc(-c3cccc4cccc(Cl)c34)c(F)c2n1` [Example 208, 3-(((3R,5S)-5-(((4-((1R,5S)-3,8-diazabicyclo[3.2.1]octan-3-yl)-7-(8-chloronaphthalen-1-yl)-8-fluoropyrido[4,3-d]pyrimidin-2-yl)oxy)methyl)-1-methylpyrrolidin-3-yl)oxy)benzenesulfonyl fluoride tris 2,2,2-trifluoroacetate]: the IC50 in assay [1] (AGS, 3 h) is above 16700 nM; in assay [2], 1840 nM.
As to `CN1C[C@H](Oc2ccc(S(=O)(=O)F)cc2)C[C@H]1COc1nc(N2C[C@H]3CC[C@@H](C2)N3)c2cnc(-c3cccc4cccc(Cl)c34)c(F)c2n1` [Example 209, 4-(((3R,5S)-5-(((4-((1R,5S)-3,8-diazabicyclo[3.2.1]octan-3-yl)-7-(8-chloronaphthalen-1-yl)-8-fluoropyrido[4,3-d]pyrimidin-2-yl)oxy)methyl)-1-methylpyrrolidin-3-yl)oxy)benzenesulfonyl fluoride tris(2,2,2-trifluoroacetate)], the IC50 in assay [1] (AGS, 3 h) was above 16700 nM; in assay [2], 2750 nM.
`CO[C@@H]1CN2CCC[C@]2(COc2nc(N3C[C@H]4CC[C@@H](C3)N4)c3cnc(-c4cccc5cccc(Cl)c45)c(F)c3n2)C1` [Example 219, 4-((1R,5S)-3,8-diazabicyclo[3.2.1]octan-3-yl)-7-(8-chloronaphthalen-1-yl)-8-fluoro-2-((2-methoxytetrahydro-1H-pyrrolizin-7a(5H)-yl)methoxy)pyrido[4,3-d]pyrimidine bis-hydrochloride] yielded an IC50 in assay [2] of 8.1 nM. This molecule also displayed a Kd in assay [3] of 8.1 nM.
`Cc1cccc(F)c1-c1ncc2c(N3C[C@H]4CC[C@@H](C3)N4)nc(OCCc3nccn3C)nc2c1F` [Example 316, 4-((1R,5S)-3,8-diazabicyclo[3.2.1]octan-3-yl)-8-fluoro-7-(2-fluoro-6-methylphenyl)-2-(2-(1-methyl-1H-imidazol-2-yl)ethoxy)pyrido[4,3-d]pyrimidine] displayed an IC50 in assay [2] above 10000 nM. The molecule further came in with a Kd in assay [3] of 157000 nM.
Take `COc1nc(N2C[C@H]3CC[C@@H](C2)N3)c2cnc(-c3cccc4cccc(C)c34)c(F)c2n1` [Example 317, 4-((1R,5S)-3,8-diazabicyclo[3.2.1]octan-3-yl)-8-fluoro-2-methoxy-7-(8-methylnaphthalen-1-yl)pyrido[4,3-d]pyrimidine]: in assay [2], the IC50 is above 10000 nM. In assay [3], this molecule returned a Kd of 91300 nM.
Turning to `CN1CCC[C@H]1COc1nc(N2CC3CCC(C2)N3)c2cnc(-c3cccc4c3CCC4O)c(F)c2n1` (stereo partly drawn) [Example 318, 4-(4-((1R,5S)-3,8-diazabicyclo[3.2.1]octan-3-yl)-8-fluoro-2-(((S)-1-methylpyrrolidin-2-yl)methoxy)pyrido[4,3-d]pyrimidin-7-yl)-2,3-dihydro-1H-inden-1-ol], in assay [2], the IC50 was above 10000 nM. In addition, the Kd in assay [3] worked out at 368000 nM.
`CCOC(=O)CCCOc1nc(N2C[C@H]3CC[C@@H](C2)N3)c2cnc(-c3cccc4cccc(Cl)c34)c(F)c2n1` [Example 319, Ethyl 4-((4-((1R,5S)-3,8-diazabicyclo[3.2.1]octan-3-yl)-7-(8-chloronaphthalen-1-yl)-8-fluoropyrido[4,3-d]pyrimidin-2-yl)oxy)butanoate] came in with an IC50 in assay [2] above 10000 nM. Also, binding in assay [3] was characterised by a dissociation constant (Kd) of 256000 nM.
In turn, `O=Cc1cc(CCCOc2nc(N3C[C@H]4CC[C@@H](C3)N4)c3cnc(-c4cccc5cccc(Cl)c45)c(F)c3n2)ccc1O` [Example 320, 5-(3-((4-((1R,5S)-3,8-diazabicyclo[3.2.1]octan-3-yl)-7-(8-chloronaphthalen-1-yl)-8-fluoropyrido[4,3-d]pyrimidin-2-yl)oxy)propyl)-2-hydroxybenzaldehyde] returned an IC50 in assay [2] above 10000 nM. In assay [3], this molecule gave a Kd of 71600 nM.
`O[C@@H]1C[C@@H]2CN(c3nc(OC[C@@]45CCCN4C[C@H](F)C5)nc4c(F)c(-c5cccc6cccc(Cl)c56)ncc34)C[C@H]1N2` [Example 395, (1R,5R,6R)-3-(7-(8-chloronaphthalen-1-yl)-8-fluoro-2-((2-fluorotetrahydro-1H-pyrrolizin-7a(5H)-yl)methoxy)pyrido[4,3-d]pyrimidin-4-yl)-3,8-diazabicyclo[3.2.1]octan-6-ol] returned an IC50 in assay [2] of 6.9 nM. Moreover, in assay [3], the Kd was determined as 2.6 nM.
`Fc1c(-c2cccc3cccc(Cl)c23)ncc2c(N3CC4CC(F)C(C3)N4)nc(OC[C@@]34CCCN3C[C@H](F)C4)nc12` (some centres unmarked) [Example 396, 7-(8-chloronaphthalen-1-yl)-8-fluoro-4-(6-fluoro-3,8-diazabicyclo[3.2.1]octan-3-yl)-2-((2-fluorotetrahydro-1H-pyrrolizin-7a(5H)-yl)methoxy)pyrido[4,3-d]pyrimidine] showed a concentration for half-maximal inhibition (IC50) in assay [2] of 207 nM. For the same molecule, the Kd in assay [3] is 34.8 nM.
For `CO[C@@H]1C[C@@H]2CN(c3nc(OC[C@@]45CCCN4C[C@H](F)C5)nc4c(F)c(-c5cccc6cccc(Cl)c56)ncc34)C[C@H]1N2` [Example 397, 7-(8-chloronaphthalen-1-yl)-8-fluoro-2-((2-fluorotetrahydro-1H-pyrrolizin-7a(5H)-yl)methoxy)-4-((1R,5R,6R)-6-methoxy-3,8-diazabicyclo[3.2.1]octan-3-yl)pyrido[4,3-d]pyrimidine] the same measures were 887 nM and 183 nM.
Regarding `C#Cc1c(F)ccc2cc(O)cc(-c3ncc4c(N5C[C@H]6CC[C@@H](C5)N6)nc(OC[C@]56CCCN5C[C@@H](F)C6)nc4c3F)c12` [Example 482, 4-(4-((1R,5S)-3,8-diazabicyclo[3.2.1]octan-3-yl)-8-fluoro-2-(((2S,7aR)-2-fluorohexahydro-1H-pyrrolizin-7a-yl)methoxy)pyrido[4,3-d]pyrimidin-7-yl)-5-ethynyl-6-fluoronaphthalen-2-ol], the IC50 in assay [1] (setting [4]) stood at 3.4 nM.

(Values after patent US20230279025A1, “KRAS G12D INHIBITORS” (Mirati Therapeutics, Inc., priority 2020, published 2023).)
